Data published in the METLIN SMRT retention time set (Domingo-Almenara et al. 2019).

Assay: gradient 5% acetonitrile 3 min, to 50% in 2 min, to 85% in 15 min, held 3 min, 100 µL/min
Details: column: Zorbax Extend-C18 2.1 x 50 mm; eluents: water / acetonitrile, 0.1% formic acid
Outline: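 Mixtures of ~100 pure standards were chromatographed on a Zorbax Extend-C18 column (2.1 × 50 mm, 1.8 μm) at 100 μL/min using water and acetonitrile, each with 0.1% formic acid. Detection used a quadrupole time-of-flight mass spectrometer in positive and negative ionization mode, and data collection spanned 3 months. Retention time was obtained from adduct peaks picked computationally and each checked manually.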

Row | RP-LC retention time [s] | SMILES
1 | 802 | Cc1cc(NC(=O)C2CCN(S(=O)(=O)c3cn(C)cn3)CC2)ccc1Br
2 | 880 | Cc1ccc(C)c(NC(=O)Cn2c(=O)n(-c3ccc(F)cc3)c3ncccc32)c1
3 | 603 | Cc1ccc(CN2CCCC(c3nc(-c4cnccn4)no3)CCNC(=O)CC2)s1 (configuration not stated)
4 | 556 | Cc1cc(C)n(CC(=O)N2CCCn3ccnc3C2c2cnn(C)c2)n1 (configuration not stated)
5 | 881 | Cc1nn(-c2ccccc2)c(C)c1S(=O)(=O)N1CCC(C(=O)NCCc2cccs2)CC1
6 | 767 | CCC(=O)Nc1cc2c(cc1S(=O)(=O)c1ccc(C)cc1)n(C)c(=O)n2C
7 | 722 | O=S(=O)(C1CC1)N1CCCCC1c1nncn1Cc1ccccc1 (configuration not stated)
8 | 582 | CN1CCN(C(=O)c2noc3c2CC(C(C)(C)C)CC3)CC1 (configuration not stated)
9 | 733 | CCn1ccc(NC(=O)c2cc(C)ccc2C)n1
10 | 879 | COc1cc(OC)cc(C(=O)N2CCCC2c2nc(-c3ccc(OC)c(OC)c3)no2)c1 (configuration not stated)
11 | 558 | COCC(=O)Nc1ccc2nc(N3CCN(C4CCCCC4)CC3)cc(C(=O)O)c2c1
12 | 885 | Cc1ccc2c(c1)C(c1ccc(F)cc1)N(C(=O)c1ccc(S(=O)(=O)N(C)C)cc1)CC(=O)N2 (configuration not stated)
13 | 1230 | CCOC(=O)c1noc2nc(C)nc(Nc3ccc(C)c(F)c3)c12
14 | 905 | CCn1c(=O)sc2cc(S(=O)(=O)N3CCC(C(=O)Nc4ccc(C)c(Cl)c4)CC3)ccc21
15 | 594 | COc1ccc(OC)c(S(=O)(=O)N2CCN(c3ccccn3)CC2)c1
16 | 696 | CCc1nc2c(c(=O)n1CC(=O)NCCC1=CCCCC1)CN(Cc1ccccc1)CC2
17 | 801 | COc1ccc(S(=O)(=O)N2CCN(c3cc(C)nc(Nc4ccc(C)cc4)n3)CC2)cc1Cl
18 | 731 | CCC(C)NC(=O)N1C[C@@H]2CN(S(=O)(=O)c3ccc(F)cc3)C[C@H](C1)O2 (some centres not stated)
19 | 573 | O=C(NCCn1nc(-c2cccs2)ccc1=O)c1cc(-c2cccs2)[nH]n1
20 | 906 | Cc1nn2c(CNS(=O)(=O)c3ccc(F)c(F)c3)c(-c3ccccc3)nc2s1
21 | 615 | COc1ccc(-c2ccc(N3CCN(C(=O)c4cnc5ccccc5n4)CC3)nn2)cc1
22 | 629 | CCc1nnc(-c2ccc3ccn(CC(=O)NCc4ccccn4)c3c2)o1

Row | RP-LC retention time [s] | SMILES
23 | 747 | O=C(Cc1cccs1)NCc1nnnn1-c1ccc(Cl)cc1
24 | 816 | O=C(N[C@H]1C[C@@H]2C[C@H]1N(S(=O)(=O)c1ccc3c(c1)OCCO3)C2)c1cccs1
25 | 693 | CCOC(=O)c1ccc(NC(=O)c2ccc(=O)n(C)n2)cc1
26 | 632 | N#Cc1ccc(-c2nc(-c3ccc4c(c3)ncn4CCN3CCCCC3)no2)cc1
27 | 784 | O=C(c1ccc(F)cc1F)N1CCN(c2cc(-c3cccs3)[nH]n2)CC1
28 | 865 | O=C(CCc1ccc2[nH]ccc2c1)N1CCN(c2ccc(F)cc2)CC1
29 | 1100 | CCc1ccc(NC(=O)Cn2cnc3c(sc4nc(-c5ccccc5)ccc43)c2=O)cc1
30 | 694 | Cc1ccc(Nc2c(-c3ccccc3)nc3ccccn23)cc1
31 | 789 | O=C(Cn1ncc2c(c1=O)N(CC1CC1)C(=O)CS2)NCc1ccccc1Cl
32 | 806 | COc1ccccc1Nc1c(-c2ccc(N3CCOCC3)cc2)nc2cnccn12
33 | 944 | CCOc1ccc(NC(=O)N2CCCN(c3ncccc3-c3nc(C4CC4)no3)CC2)cc1
34 | 900 | O=C(NC1CCCC1)C1CCc2sc(C(=O)N3CCCCCC3)cc2C1 (configuration not stated)
35 | 944 | CCc1noc(-c2ccc(-n3cnc(C(=O)N(C)C4CCCCC4)c3)nc2)n1
36 | 674 | Cn1nc(C(=O)N2CCOCC2)c2c1CCN(C(=O)Nc1ccccc1Cl)C2
37 | 931 | COc1cccc2c1OC1(C)CC2C(S(=O)(=O)c2ccc(C)c(C)c2)C(=O)N1C (configuration not stated)
38 | 978 | CCOc1cccc(-c2noc(-c3nn(-c4cccc(F)c4)ccc3=O)n2)c1
39 | 641 | CC(NC(=O)c1ccccc1)c1nc(-c2ccc3nnn(C)c3c2)no1 (configuration not stated)
40 | 720 | COc1ccccc1/C=C/C(=O)N1CCC(c2cc(N)on2)CC1
41 | 617 | COc1ccc(Nc2c(-c3ccc(O)c(OC)c3)nc3nc(C)cc(C)n23)cc1
42 | 585 | CN1CCC(NC(=O)c2ccc(-n3cc(CNC(=O)C4CCC4)cn3)cc2)CC1
43 | 740 | CCOc1ccc(NC(=O)C2(C)Oc3cccnc3NC2=O)cc1 (configuration not stated)
44 | 652 | CCOc1ccc(CC(=O)NCC(=O)Nc2nc3ccccc3[nH]2)cc1OCC

Row | RP-LC retention time [s] | SMILES
45 | 1300 | Cc1cccc(-c2nc(Cn3nnc(-c4nc(-c5ccc(F)cc5)no4)c3C)c(C)o2)c1
46 | 1040 | O=S(=O)(c1ccccc1)N1CCc2nc(-c3ccc(F)cc3)ncc2C1
47 | 656 | Cc1nnc(C2CC3(CCN(CCc4ccccc4)CC3)CN2Cc2ccccc2)o1 (configuration not stated)
48 | 581 | COCCN1C(=O)Cc2ccccc2C1C(=O)N1CCN(c2ccccn2)CC1 (configuration not stated)
49 | 789 | Cc1cccc(NC(=O)Nc2ccc(-c3cccc4[nH]nc(N)c34)cc2)c1
50 | 654 | COc1ccc2[nH]c3c(c2c1)CCNC3c1ccc(C)cc1 (configuration not stated)
51 | 718 | CCc1nnc2ccc(NC(C)C)nn12
52 | 800 | Cc1ccc(NC(=O)Cn2c(=O)n(-c3ccc(F)cc3)c(=O)c3c2cc(C)n3C)cc1
53 | 1180 | COc1ccc(C2Cn3nnc(-c4nc(-c5ccc(F)c(Br)c5)no4)c3CO2)cc1 (configuration not stated)
54 | 1060 | C=CCN(CC=C)c1nc(-c2ccc([N+](=O)[O-])cc2)nc2ccccc12
55 | 676 | COc1ccc(N2CCN(C(=O)C3CCCN(c4nccc5sc(C)cc45)C3)CC2)cc1 (configuration not stated)
56 | 1140 | O=c1c2cc(-c3cccc4ccccc34)nn2ccn1Cc1nc(-c2ccccc2)no1
57 | 778 | CCOC(=O)c1c(C)[nH]c(C(=O)N2CCC(C(C)C(=O)NCc3ccc4c(c3)OCO4)CC2)c1C (configuration not stated)
58 | 791 | CCN1c2ccc(F)cc2C(=O)NC12CCN(C(=O)c1cccc(F)c1)CC2
59 | 660 | O=C(NC1COc2ccccc2C1)N1CCOCC1 (configuration not stated)
60 | 724 | CCN1C(=O)C2(CCN(S(=O)(=O)c3cn(C)cn3)CC2)c2ccccc21
61 | 1090 | O=C1Nc2ccc(I)cc2C1=Cc1cc(Br)c(O)c(Br)c1
62 | 754 | COc1ccc(N2CCN(C(=O)CC(C)S(=O)(=O)c3ccc4c(c3)CCN4C(C)=O)CC2)cc1 (configuration not stated)
63 | 878 | CCc1cccc(C)c1Nc1c(-c2ccc(C)cc2)nc2ncccn12
64 | 803 | COc1ccc2nc(NC(=O)C3CCN(C(=O)c4ccc(-c5noc(C)n5)cc4)CC3)sc2c1
65 | 669 | CN(CC1CCOC1)C(=O)NCc1ccc(F)cc1 (configuration not stated)
66 | 707 | O=C(Cc1ccc(F)cc1)NC1CCN(c2cc(-c3cccs3)[nH]n2)C1 (configuration not stated)

Row | RP-LC retention time [s] | SMILES
67 | 680 | Cc1nnc(N2CCCC(C(=O)NCc3ccco3)C2)c2nn(-c3ccccc3)c(C)c12 (configuration not stated)
68 | 955 | Cc1cccc(NC(=O)c2cc(C)n3nccc3n2)c1
69 | 707 | Cc1nc(-c2cc(S(=O)(=O)N3CCC(C(=O)NC4CCCCCC4)CC3)c(C)s2)no1
70 | 594 | FC(F)(F)c1ccc(CN2CCN(c3cnn4cnnc4c3)CC2)cc1
71 | 632 | CCC(C(=O)N1CCN(c2ccccn2)CC1)n1c(C)c2cnn(-c3ccccc3)c(=O)c2c1C (configuration not stated)
72 | 1060 | Cc1ccc(-c2cc3c4nnc(SCC(=O)Nc5cccc(Cl)c5)n4ccn3n2)cc1C
73 | 634 | Cc1nnc(NC(=O)CSc2nnc(NC(=O)Nc3cccs3)s2)s1
74 | 788 | COc1ccc(-c2noc(C3CCCN3C(=O)CNC(=O)c3cccs3)n2)cc1 (configuration not stated)
75 | 863 | COCCCNC(=O)c1ccc(-n2nc(Sc3ccc(Cl)cc3)ccc2=O)cc1
76 | 757 | Cc1cc(=O)n2c(-c3ccc(NC(=O)C(C)Oc4ccc5c(c4)OCO5)cc3)csc2n1 (configuration not stated)
77 | 686 | CCc1nn2c(N3CCN(c4ccccn4)CC3)cc(C)nc2c1-c1ccc(F)cc1
78 | 1130 | CCCn1c(=O)c(N2CCN(C(=O)CC3CCCC3)CC2)nc2ccccc21
79 | 1100 | CCOC(=O)c1c(C)oc2ncnc(N3CCC(c4ccccc4)C3)c12 (configuration not stated)
80 | 622 | CCS(=O)(=O)N1CCC(Cc2ccc(CN3CCOCC3)cc2)CC1
81 | 626 | CCCNC(=O)C1CCN(c2ccc(SCC(=O)Nc3ccc4c(c3)OCCO4)nn2)CC1
82 | 769 | Cc1cccc(N2CCN(C(=O)c3c(C)sc4ccn(C)c(=O)c34)CC2)c1
83 | 771 | CCC1(C(=O)Nc2ccc(C)c(F)c2)CCCCC(=O)N1 (configuration not stated)
84 | 962 | Cc1ccc(S(=O)(=O)N2CCCC(CCC(=O)N3CCCCC3)C2)cc1 (configuration not stated)
85 | 712 | Cc1cccc(NC(=O)Cn2cnc3nc(N4CCCC(C(=O)NC(C)C)C4)sc3c2=O)c1C (configuration not stated)
86 | 598 | Cc1cc(C)c(CNC(=O)C2CCN(c3cncnc3N3CCN(C)CC3)CC2)c(C)c1

Row | SMILES | RP-LC retention time [s]
87 | O=C1OC(c2ccccc2)=N/C1=C\c1ccc(N(CCCl)CCCl)cc1 | 1240
